In brackets after ≈: the same amount, converted by molar mass. Positions of bridges follow the written chain, without caps; N, C: chain ends. Non-standard residues stand in square brackets, D forms with d. Residues, ends and D or L forms follow the SMILES beside them. *: point of attachment. CH2CH2OBz(4-tBu) = CC(C)(C)c1ccc(C(=O)OCC*)cc1; Ethyl(2-butanoyloxy) = CCCC(=O)OCC*; Ethyl(2-propionyloxy) = CCC(=O)OCC*; Ethyl(2-OPiv) = CC(C)(C)C(=O)OCC*; hCys = N[C@@H](CCS)C(=O)O; Dab = NCC[C@H](N)C(=O)O; X6 = CCC(C)(C)C(=O)OCC*; Dap = NC[C@H](N)C(=O)O
Key:
E. coli ATCC MS8345 = type: cell-based, Escherichia coli; conditions: ATCC MS8345
Source text: (§1) All 81 compounds prepared in Examples 2 and 3 underwent screening against a panel of Gram-negative bacterium to assess their ability to inhibit bacterial growth. […] The median value is presented.
Expansion of the polymyxin macrocycle by substituting […]) offered little advantage in antimicrobial activity but was generally well tolerated although for A. baumanni and P. aeruginosa this was detrimental.

P. aeruginosa ATCC 27853 = type: cell-based, Pseudomonas aeruginosa; conditions: ATCC 27853
Source text: as §1

E. coli ATCC 25922 = type: cell-based, Escherichia coli; conditions: ATCC 25922
Source text: as §1

[1] = system: K. pneumoniae ATCC 700603; type: cell-based, Klebsiella pneumoniae; conditions: ATCC 700603
Source text: as §1

[2] = system: K. pneumoniae ATCC MS6671; type: cell-based, Klebsiella pneumoniae; conditions: ATCC MS6671
Source text: as §1

K. pneumoniae ATCC 33495 = type: cell-based, Klebsiella pneumoniae; conditions: ATCC 33495
Source text: as §1

A. baumannii ATCC 19606 = type: cell-based, Acinetobacter baumannii; conditions: ATCC 19606
Source text: as §1

| MIC E. coli ATCC MS8345 (E. coli ATCC MS8345) [mg/L] | MIC P. aeruginosa ATCC 27853 (P. aeruginosa ATCC 27853) [mg/L] | MIC E. coli ATCC 25922 (E. coli ATCC 25922) [mg/L] | MIC K. pneumoniae ATCC 700603 [1] [mg/L] | MIC K. pneumoniae ATCC MS6671 [2] [mg/L] | MIC K. pneumoniae ATCC 33495 (K. pneumoniae ATCC 33495) [mg/L] | MIC A. baumannii ATCC 19606 (A. baumannii ATCC 19606) [mg/L] | SMILES |
| --- | --- | --- | --- | --- | --- | --- | --- |
| >32 | >32 | 2 (≈ 1.44 µM) | 2 to 4 | >32 | 16 (≈ 11.6 µM) | >32 | CCC(=O)OCCSC[C@H](N)C(=O)N[C@@H](CCN)C(=O)N[C@H](C(=O)N[C@@H](CCN)C(=O)N[C@H]1CCNC(=O)[C@H]([C@@H](C)O)NC(=O)[C@H](CCN)NC(=O)[C@H](CCN)NC(=O)[C@H](CSCCOC(=O)C(C)(C)C)NC(=O)[C@@H](Cc2ccccc2)NC(=O)[C@H](CCN)NC1=O)[C@@H](C)O [Compound 43] (H-C(Ethyl(2-propionyloxy))[Dab]T[Dab][Dab][Dab][dF]C(Ethyl(2-OPiv))[Dab][Dab]T; lactam 5-C) |
| 32 (≈ 25 µM) | 2 (≈ 1.56 µM) | 0.5 (≈ 0.39 µM) | 0.5 (≈ 0.39 µM) | >32 | 0.125 (≈ 0.0976 µM) | 2 (≈ 1.56 µM) | CCCC(=O)OCCSC[C@H](N)C(=O)N[C@@H](CCN)C(=O)N[C@H](C(=O)N[C@@H](CCN)C(=O)N[C@H]1CCNC(=O)[C@H]([C@@H](C)O)NC(=O)[C@H](CCN)NC(=O)[C@H](CCN)NC(=O)[C@H](CC(C)C)NC(=O)[C@@H](Cc2ccccc2)NC(=O)[C@H](CCN)NC1=O)[C@@H](C)O [Compound 30] (H-C(Ethyl(2-butanoyloxy))[Dab]T[Dab][Dab][Dab][dF]L[Dab][Dab]T; lactam 5-C) |
| >32 | >32 | 4 (≈ 3.09 µM) | >32 | >32 | 4 (≈ 3.09 µM) | >32 | CCC(=O)OCCSC[C@H](N)C(=O)N[C@@H](CCN)C(=O)N[C@H](C(=O)N[C@@H](CCN)C(=O)N[C@H]1CCCCNC(=O)[C@H]([C@@H](C)O)NC(=O)[C@H](CCN)NC(=O)[C@H](CCN)NC(=O)[C@H](CC(C)C)NC(=O)[C@@H](Cc2ccccc2)NC(=O)[C@H](CCN)NC1=O)[C@@H](C)O [Compound 23] (H-C(Ethyl(2-propionyloxy))[Dab]T[Dab]K[Dab][dF]L[Dab][Dab]T; lactam 5-C) |
|  | 2 (≈ 1.58 µM) | 2 (≈ 1.58 µM) | 4 (≈ 3.16 µM) | >32 | 2 (≈ 1.58 µM) | >32 | CCC(=O)OCCSC[C@@H](N)C(=O)N[C@@H](CCN)C(=O)N[C@H](C(=O)N[C@@H](CCN)C(=O)N[C@H]1CCNC(=O)[C@H]([C@@H](C)O)NC(=O)[C@H](CCN)NC(=O)[C@H](CCN)NC(=O)[C@H](CC(C)C)NC(=O)[C@@H](Cc2ccccc2)NC(=O)[C@H](CCN)NC1=O)[C@@H](C)O [Compound 58] (H-[dC](Ethyl(2-propionyloxy))[Dab]T[Dab][Dab][Dab][dF]L[Dab][Dab]T; lactam 5-C) |
| >32 | 4 (≈ 3.31 µM) | 2 (≈ 1.65 µM) | 2 (≈ 1.65 µM) | >32 | 2 (≈ 1.65 µM) | 4 (≈ 3.31 µM) | CCC(C)(C)C(=O)OCCSC[C@@H](N)C(=O)N[C@H](C(=O)N[C@@H](CCN)C(=O)N[C@H]1CCNC(=O)[C@H]([C@@H](C)O)NC(=O)[C@H](CCN)NC(=O)[C@H](CCN)NC(=O)[C@H](CC(C)C)NC(=O)[C@@H](Cc2ccccc2)NC(=O)[C@H](CCN)NC1=O)[C@@H](C)O [Compound 99] (H-[dC](X6)T[Dab][Dab][Dab][dF]L[Dab][Dab]T; lactam 4-C) |
| >32 | >32 | 2 (≈ 1.53 µM) |  | >32 | 1 (≈ 0.764 µM) | >32 | CCCC(=O)OCCSC[C@H](N)C(=O)N[C@@H](CCN)C(=O)N[C@H](C(=O)N[C@@H](CCN)C(=O)N[C@H]1CCCCNC(=O)[C@H]([C@@H](C)O)NC(=O)[C@H](CCN)NC(=O)[C@H](CCN)NC(=O)[C@H](CC(C)C)NC(=O)[C@@H](Cc2ccccc2)NC(=O)[C@H](CCN)NC1=O)[C@@H](C)O [Compound 24] (H-C(Ethyl(2-butanoyloxy))[Dab]T[Dab]K[Dab][dF]L[Dab][Dab]T; lactam 5-C) |
| 32 (≈ 26.8 µM) | 2 (≈ 1.67 µM) | 1 (≈ 0.837 µM) | 2 (≈ 1.67 µM) | >32 | 1 (≈ 0.837 µM) | 4 (≈ 3.35 µM) | CC(C)C[C@@H]1NC(=O)[C@@H](Cc2ccccc2)NC(=O)[C@H](CCN)NC(=O)[C@@H](NC(=O)[C@H](CCN)NC(=O)[C@@H](NC(=O)[C@H](N)CSCCOC(=O)C(C)(C)C)[C@@H](C)O)CCNC(=O)[C@H]([C@@H](C)O)NC(=O)[C@H](CCN)NC(=O)[C@H](CCN)NC1=O [Compound 93] (H-[dC](Ethyl(2-OPiv))T[Dab][Dab][Dab][dF]L[Dab][Dab]T; lactam 4-C) |
| 2 (≈ 1.57 µM) | 2 (≈ 1.57 µM) | 2 (≈ 1.57 µM) | 4 (≈ 3.15 µM) | >32 | 2 (≈ 1.57 µM) | 4 (≈ 3.15 µM) | CC(C)C[C@@H]1NC(=O)[C@@H](Cc2ccccc2)NC(=O)[C@H](CCN)NC(=O)[C@@H](NC(=O)[C@H](CCN)NC(=O)[C@@H](NC(=O)[C@H](N)CSCCOC(=O)c2ccc(C(C)(C)C)cc2)[C@@H](C)O)CCNC(=O)[C@H]([C@@H](C)O)NC(=O)[C@H](CCN)NC(=O)[C@H](CCN)NC1=O [Compound 104] (H-[dC](CH2CH2OBz(4-tBu))T[Dab][Dab][Dab][dF]L[Dab][Dab]T; lactam 4-C) |
|  |  | 32 (≈ 26.8 µM) |  |  |  |  | CC(C)C[C@@H]1NC(=O)[C@@H](Cc2ccccc2)NC(=O)[C@H](CCN)NC(=O)[C@@H](NC(=O)[C@H](CCN)NC(=O)[C@@H](NC(=O)[C@@H](N)CSCCOC(=O)C(C)(C)C)[C@@H](C)O)CCNC(=O)[C@H]([C@@H](C)O)NC(=O)[C@H](CCN)NC(=O)[C@H](CCN)NC1=O [Compound 71] (H-C(Ethyl(2-OPiv))T[Dab][Dab][Dab][dF]L[Dab][Dab]T; lactam 4-C) |
|  |  | 2 (≈ 1.73 µM) |  |  |  |  | CCC(=O)OCCSC[C@@H](N)C(=O)N[C@H](C(=O)N[C@H](CO)C(=O)N[C@H]1CCNC(=O)[C@H]([C@@H](C)O)NC(=O)[C@H](CCN)NC(=O)[C@H](CCN)NC(=O)[C@H](CC(C)C)NC(=O)[C@@H](Cc2ccccc2)NC(=O)[C@H](CCN)NC1=O)[C@@H](C)O [Compound 86] (H-[dC](Ethyl(2-propionyloxy))T[dS][Dab][Dab][dF]L[Dab][Dab]T; lactam 4-C) |
|  |  | 0.25 (≈ 0.209 µM) |  |  |  |  | CC(C)C[C@@H]1NC(=O)[C@@H](Cc2ccccc2)NC(=O)[C@H](CCN)NC(=O)[C@@H](NC(=O)[C@H](CCN)NC(=O)[C@@H](NC(=O)[C@H](N)CSCCOC(=O)C(C)(C)C)[C@@H](C)O)CCNC(=O)[C@H]([C@@H](C)O)NC(=O)[C@H](CCN)NC(=O)[C@H](CCN)NC1=O [Compound 79] (H-[dC](Ethyl(2-OPiv))T[Dab][Dab][Dab][dF]L[Dab][Dab]T; lactam 4-C) |
| 32 (≈ 27.1 µM) | 2 (≈ 1.69 µM) |  | 1 (≈ 0.847 µM) | >32 | 1 (≈ 0.847 µM) | 4 (≈ 3.39 µM) | CCCC(=O)OCCSC[C@@H](N)C(=O)N[C@H](C(=O)N[C@@H](CCN)C(=O)N[C@H]1CCNC(=O)[C@H]([C@@H](C)O)NC(=O)[C@H](CCN)NC(=O)[C@H](CCN)NC(=O)[C@H](CC(C)C)NC(=O)[C@@H](Cc2ccccc2)NC(=O)[C@H](CCN)NC1=O)[C@@H](C)O [Compound 89] (H-[dC](Ethyl(2-butanoyloxy))T[Dab][Dab][Dab][dF]L[Dab][Dab]T; lactam 4-C) |
|  |  | 32 (≈ 27.4 µM) |  |  |  |  | CCC(=O)OCCSCC[C@H](N)C(=O)N[C@H](C(=O)N[C@@H](CN)C(=O)N[C@H]1CCNC(=O)[C@H]([C@@H](C)O)NC(=O)[C@H](CCN)NC(=O)[C@H](CCN)NC(=O)[C@H](CC(C)C)NC(=O)[C@@H](Cc2ccccc2)NC(=O)[C@H](CCN)NC1=O)[C@@H](C)O [Compound 84] (H-[hCys](Ethyl(2-propionyloxy))T[Dap][Dab][Dab][dF]L[Dab][Dab]T; lactam 4-C) |
|  |  | 2 (≈ 1.71 µM) |  |  |  |  | CCC(=O)OCCSC[C@@H](N)C(=O)N[C@H](C(=O)N[C@@H](CCN)C(=O)N[C@H]1CCNC(=O)[C@H]([C@@H](C)O)NC(=O)[C@H](CCN)NC(=O)[C@H](CCN)NC(=O)[C@H](CC(C)C)NC(=O)[C@@H](Cc2ccccc2)NC(=O)[C@H](CCN)NC1=O)[C@@H](C)O [Compound 74] (H-[dC](Ethyl(2-propionyloxy))T[Dab][Dab][Dab][dF]L[Dab][Dab]T; lactam 4-C) |
|  |  | >128 |  |  |  |  | CCC(=O)OCCSC[C@H](N)C(=O)N[C@H](C(=O)N[C@@H](CCN)C(=O)N[C@H]1CCNC(=O)[C@H]([C@@H](C)O)NC(=O)[C@H](CCN)NC(=O)[C@H](CCN)NC(=O)[C@H](CC(C)C)NC(=O)[C@@H](Cc2ccccc2)NC(=O)[C@H](CCN)NC1=O)[C@@H](C)O [Compound 61] (H-C(Ethyl(2-propionyloxy))T[Dab][Dab][Dab][dF]L[Dab][Dab]T; lactam 4-C) |

Source: US20250282827A1, “LIPIDATED POLYMYXIN ANALOGUES” (priority 2021, published 2025)
